{"source": "patent US10894036B2", "about": "“Use of marizomib for the treatment of central nervous system (CNS) cancers” (Celgene International II Sàrl, priority 2016, dated 2021)", "key": {"[1]": {"system": "WHO Grade IV Malignant Glioma", "test": "Phase 1/2 MRZ + BEV and MRZ monotherapy in recurrent G4 MG: tumor response by RANO, PFS, OS", "format": "in vivo, human", "conditions": "for Best Response NE (2), patients: MRZ monotherapy ITT", "text": "(§1) The drugs were infused on 28-Day Cycles.\nTumor response, including PD activity, progression-free survival (PFS), and overall survival (OS) will be assessed. Tumor response will be assessed by the Investigators using RANO 2010 criteria. The overall confirmed response rate will be presented. The response rate, PFS, and OS will also be tabulated by dose cohorts in Part 1 Phase 1 and for all response-evaluable patients in Part 2 Phase 2 and Part 3 Phase 2. Endpoints of response based on tumor assessments will be calculated for subjects who received at least 3 doses of MRZ and had at least 1 post-dose tumor evaluation."}, "[2]": {"system": "trypsin-like (T-L) proteasome activity", "test": "Proteasome inhibition in packed whole blood: T-L", "format": "in vivo, human", "conditions": "for compensatory hyperactivation of T-L and C-L proteasome subunits: repeated dosing", "text": "as §1\nChange in proteasome activities in packed whole blood (PWB) lysates and peripheral blood mononuclear cell (PBMC) lysates, comparing pre-drug and post drug levels on Days 1, 8, and 15 of Cycle 1; Days 1 and 15 of each Cycle thereafter; and at the End-of Treatment Visit.\nThe laboratory correlates include assessment of the percentage inhibition of proteasome function (evaluated by measurement of CT-L, T-L and C-L activity in blood isolates such as whole blood and PBMC lysates.\nPD analysis will include change in proteasome activities (whole blood lysates and PBMC lysates) by comparing pre-drug and post drug levels on Days 1, 8, and 15 (i.e., for each dose) of Cycle 1 and Days 1 and 15 (i.e., for the first and last doses) of each cycle thereafter."}, "[3]": {"conditions": "MRZ + BEV N = 10, MRZ monotherapy N = 7"}, "[4]": {"conditions": "MRZ + BEV N = 22, MRZ monotherapy N = 18"}, "[5]": {"conditions": "MRZ monotherapy 0.8 mg/m^2, first 15 recurrent glioma patients"}}, "note": "“Also recorded” adds a separate entry of the source.", "data": [{"compound": "C[C@@]12OC(=O)[C@]1([C@@H](O)[C@@H]1C=CCCC1)NC(=O)[C@@H]2CCCl", "note": "[marizomib]", "values": [{"measurement": "OS 6 mo %", "setting": "[1]; All Patients", "result": 64, "unit": "%"}, {"measurement": "OS 9 mo %", "setting": "[1]; All Patients", "result": 64, "unit": "%"}, {"measurement": "Median OS, methylated MGMT promoter", "setting": "[1]; [3]", "result": "Undefined"}, {"measurement": "Median PFS, methylated MGMT promoter", "setting": "[1]; [3]", "result": 1.7, "unit": "Months"}, {"measurement": "OS 6 Months, methylated", "setting": "[1]; [3]", "result": 83, "unit": "%"}, {"measurement": "OS 9 Months, methylated", "setting": "[1]; [3]", "result": 83, "unit": "%"}, {"measurement": "Median OS, unmethylated MGMT promoter", "setting": "[1]; [4]", "result": "Undefined"}, {"measurement": "Median PFS, unmethylated MGMT promoter", "setting": "[1]; [4]", "result": 1.9, "unit": "Months"}, {"measurement": "OS 6 Months, unmethylated", "setting": "[1]; [4]", "result": 65, "unit": "%"}, {"measurement": "OS 9 Months, unmethylated", "setting": "[1]; [4]", "result": 65, "unit": "%"}, {"measurement": "partial remission, patients", "setting": "[1]; [5]", "result": 1}, {"measurement": "stable disease, additional patients", "setting": "[1]; [5]", "result": 2}, {"measurement": "Best Response NE (2), patients", "setting": "[1]; methylated, N = 7", "result": 0}, {"measurement": "Best Response NE (2), patients", "setting": "[1]; unknown, N = 5", "result": 1}, {"measurement": "Best Response NE (2), patients", "setting": "[1]; unmethylated, N = 18", "result": 1}, {"measurement": "PFS 3 mo, methylated", "setting": "[1]; MRZ monotherapy, N = 7", "result": 40, "unit": "%"}, {"measurement": "PFS 3 mo, unmethylated", "setting": "[1]; MRZ monotherapy, N = 18", "result": 20, "unit": "%"}, {"measurement": "patients on the study for ≥4 cycles", "setting": "[1]; MRZ monotherapy, N = 30", "result": "Six"}, {"measurement": "progression on marizomib alone", "setting": "[1]; MRZ monotherapy, N = 30", "result": "most patients demonstrated rapid progression"}, {"measurement": "Best Response, Pt 0511", "setting": "[1]; MRZ monotherapy, 2nd recurrence, current cycle 10", "result": "PR (≥50% decrease compared with baseline in the sum of products of perpendicular diameters of all measurable enhancing lesions sustained for at least 4 weeks)"}, {"measurement": "OS 6 mo %", "setting": "[1]; Methylated MGMT Promoter", "result": 83, "unit": "%"}, {"measurement": "OS 9 mo %", "setting": "[1]; Methylated MGMT Promoter", "result": 83, "unit": "%"}, {"measurement": "OS 6 mo %", "setting": "[1]; Unmethylated MGMT Promoter", "result": 65, "unit": "%"}, {"measurement": "OS 9 mo %", "setting": "[1]; Unmethylated MGMT Promoter", "result": 65, "unit": "%"}, {"measurement": "patients found to respond to marizomib monotherapy", "setting": "[1]; ≥ stable disease and >4 cycles (Table 38)", "result": "four"}, {"measurement": "% T-L inhibition", "setting": "[2]; PWB post-MRZ infusion (peak effect), 0.7 mg/m^2 (17 May 2016)", "result": "77.3 ± 10.5 (3) %"}, {"measurement": "compensatory hyperactivation of T-L and C-L proteasome subunits", "setting": "[2]", "result": "overcome compensatory hyperactivation of proteasome subunits; also recorded: overcomes compensatory hyperactivation"}, {"measurement": "compensatory hyperactivation of T-L and C-L proteasome subunits", "setting": "[2]; listed as MRZ", "result": "overcomes compensatory hyperactivation of proteasome subunits"}]}]}
